Measurements from article PMC7074199, “Phytochemicals of Minthostachys diffusa Epling and Their Health-Promoting Bioactivities” (Foods, 2020).
Where two headings read alike, the source gives them in different places.

Tests used:
[1] = tested on: Oncopeltus fasciatus; set-up: method as in earlier work; settings: cited from earlier work
[2] = tested on: BChE; set-up: method as in doi:10.1016/j.foodchem.2010.10.050; settings: isolated from Micromeria cilicica; cited from earlier work
[3] = molecular target: T1, acetylcholinesterase (AChE) from Electrophorus electricus (Electrophorus electricus, UniProt O42275); assay: biochemical
T1 construct: purchased Sigma-Aldrich (Milan, Italy) type VI-s
Description: (§1) The two prevalent forms of cholinesterase in a healthy brain are acetylcholinesterase (AChE) and butyrylcholinesterase (BChE). Ellman’s reaction to analyse the AChE and BChE inhibition by the samples was used as described before.

[4] = molecular target: T2, butyrylcholinesterase (BChE) from equine serum (Equus caballus, UniProt P81908); assay: biochemical
T2 construct: butyrylcholinesterase (BChE) from equine serum (lyophilized powder); purchased Sigma-Aldrich (Milan, Italy); host or cells: equine serum
Description: as §1

[5] = tested on: AChE; set-up: method as in doi:10.1016/j.foodchem.2010.10.050; settings: isolated from Micromeria cilicica; cited from earlier work
[6] = Nitric oxide radical scavenging assay; settings: concentration inhibiting 25% of radicals
Experimental: All M. diffusa samples were tested for their radical scavenging activity by four different in vitro chemical assays targeted against the biological super oxide anion (O2^−) and nitric oxide (NO) radicals, and the synthetic neutral DPPH and cationic ABTS^+ radicals.

[7] = tested on: aged as well as scopolamine-induced amnesic rats; set-up: method as in doi:10.31024/ajpp.2018.4.6.17; settings: cited from earlier work
[8] = read-out: AChE IC50 (converted)

T1 sequence (O42275 24-633): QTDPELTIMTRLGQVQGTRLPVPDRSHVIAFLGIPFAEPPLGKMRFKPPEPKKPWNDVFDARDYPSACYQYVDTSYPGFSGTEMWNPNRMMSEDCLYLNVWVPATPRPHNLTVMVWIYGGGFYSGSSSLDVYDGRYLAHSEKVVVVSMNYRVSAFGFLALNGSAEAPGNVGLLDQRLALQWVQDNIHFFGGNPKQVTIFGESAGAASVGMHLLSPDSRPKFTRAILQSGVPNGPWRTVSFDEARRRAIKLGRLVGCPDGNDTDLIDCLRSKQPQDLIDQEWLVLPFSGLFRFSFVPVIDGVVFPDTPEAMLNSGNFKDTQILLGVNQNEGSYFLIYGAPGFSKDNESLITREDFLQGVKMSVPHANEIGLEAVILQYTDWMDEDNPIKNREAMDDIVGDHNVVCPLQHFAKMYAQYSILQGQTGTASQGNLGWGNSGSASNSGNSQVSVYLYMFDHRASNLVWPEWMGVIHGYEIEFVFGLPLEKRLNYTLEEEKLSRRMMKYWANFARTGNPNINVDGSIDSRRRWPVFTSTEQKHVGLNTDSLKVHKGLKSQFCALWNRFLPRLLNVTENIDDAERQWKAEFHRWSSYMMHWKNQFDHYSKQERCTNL
T2 sequence (P81908 whole entry): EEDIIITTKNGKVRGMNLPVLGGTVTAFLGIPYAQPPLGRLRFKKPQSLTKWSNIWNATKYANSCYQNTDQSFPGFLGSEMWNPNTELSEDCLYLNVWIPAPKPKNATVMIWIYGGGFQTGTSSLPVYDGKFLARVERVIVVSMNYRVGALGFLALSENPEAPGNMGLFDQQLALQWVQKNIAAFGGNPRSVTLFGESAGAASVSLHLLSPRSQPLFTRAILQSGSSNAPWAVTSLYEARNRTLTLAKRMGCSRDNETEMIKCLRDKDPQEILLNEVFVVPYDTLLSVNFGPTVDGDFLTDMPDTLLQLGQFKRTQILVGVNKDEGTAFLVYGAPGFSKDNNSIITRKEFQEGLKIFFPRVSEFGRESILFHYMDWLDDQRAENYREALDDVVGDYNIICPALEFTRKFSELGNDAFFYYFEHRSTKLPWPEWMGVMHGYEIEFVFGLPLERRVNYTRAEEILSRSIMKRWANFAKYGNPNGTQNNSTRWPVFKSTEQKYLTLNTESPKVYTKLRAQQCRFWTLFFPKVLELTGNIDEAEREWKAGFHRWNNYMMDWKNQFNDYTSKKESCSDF

CC(=O)O[C@H]1[C@H]2O[C@@]2(C)CC[C@H]1C(C)C [(−)-(1S,2R,3R,4S)-1,2-epoxy-1-methyl-4-(1-methylethyl)-cyclohex-3-yl acetate]
insecticidal activity [1]: significant insecticidal activity

C[C@H]1[C@H](C)CC[C@]2(C(=O)O)CC[C@]3(C)C(=CC[C@@H]4[C@@]5(C)CC[C@H](O)C(C)(C)[C@@H]5CC[C@]43C)[C@H]12 [Ursolic acid]
IC50 [2]: 41.1 µM | IC50 [3, 8]: 85.3 ± 5.85 µM | IC50 ([4]; read-out: BChE IC50): 83.5 ± 0.94 µM | IC50 [5]: 93.8 µM

O=C1O[C@H]([C@@H](O)CO)C(O)=C1O [ascorbic acid]
NO IC25 [6]: 4780 ± 90 µg/mL

C=C(C)[C@@H]1CC[C@]2(C(=O)O)CC[C@]3(C)[C@H](CC[C@@H]4[C@@]5(C)CC[C@H](O)C(C)(C)[C@@H]5CC[C@]43C)[C@@H]12 [betulinic acid]
effect on learning and memory [7]: improves learning and memory | IC50 [3, 8]: 19.7 µM

COc1ccc2c3c1O[C@H]1C[C@@H](O)C=C[C@@]31CCN(C)C2 [galantamine]
inhibition at 60 µg/mL ([4]; read-out: BChE inhibition): 67.3 ± 2.61%

CC1(C)CC[C@]2(C(=O)O)CC[C@]3(C)C(=CC[C@@H]4[C@@]5(C)C[C@@H](O)[C@H](O)C(C)(C)[C@@H]5CC[C@]43C)[C@@H]2C1 [maslinic acid]
IC50 [3]: 46.5 µM | IC50 [4]: 10.6 µM
